Among the test systems are HT29 colon; OVCAR-4 ovarian; MOLT-4 leukemia; IGROV1 ovarian; SW-620 colon; HOP-62 NSCLC; SF-539 CNS; SNB-75 CNS; A549 NSCLC; SK-MEL-28 melanoma; T-47D breast.
Holding throughout (test): inhibition of tumour cell growth, NCI panel, 48 h

Molecules are shown by their SMILES.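 Dose response: 5 concentrations. Exposure: 48 h. Format: 96-well plates. Endpoint: linear interpolation; highest concentration if not reached. Definition used: TGI = concentration required for complete inhibition of growth.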

Regarding `Nc1ncnc2c1sc1nc3ccccc3n12`, the TGI was above 100 µM in the assay on HT29 colon; above 100 µM with OVCAR-4 ovarian; above 78.7 µM in the assay on MOLT-4 leukemia; above 100 µM in the assay on IGROV1 ovarian; above 100 µM with SW-620 colon; above 100 µM with HOP-62 NSCLC. Also, the TGI with SF-539 CNS was 47.9 µM; in the assay with SNB-75 CNS it was above 51.2 µM; with A549 NSCLC it was above 100 µM; with SK-MEL-28 melanoma, above 100 µM; in the assay on T-47D breast, above 100 µM.

For the molecule `CC(C)(C)OC(=O)NC(CCCCNC(=O)OCc1ccccc1)C(=O)NCCNc1ccc(NCCNC(=O)C(CCCCNC(=O)OCc2ccccc2)NC(=O)OC(C)(C)C)c2c1C(=O)c1ccccc1C2=O` (stereo not drawn), the TGI with HT29 colon is above 100 µM; in the assay with OVCAR-4 ovarian, above 100 µM; in the assay on MOLT-4 leukemia, above 100 µM; in the assay on IGROV1 ovarian it was above 100 µM; in the assay on SW-620 colon, above 100 µM; in the assay on HOP-62 NSCLC, above 74.3 µM. The TGI with SF-539 CNS was above 52.8 µM; with SNB-75 CNS it was 70.4 µM; in the assay on A549 NSCLC it was above 100 µM; with SK-MEL-28 melanoma it was above 100 µM; in the assay with T-47D breast it was 28 µM.

As for `COc1c(CC=C(C)C)c(O)c(C(CC(C)C)c2c(O)c3c(c(C(C)=O)c2O)OC(C(C)(C)O)C3)c(O)c1C(C)=O` (stereo not drawn), the TGI was above 12.5 µM in the assay with HT29 colon; above 12.5 µM with OVCAR-4 ovarian; 5.9 µM with MOLT-4 leukemia; above 12.5 µM in the assay with IGROV1 ovarian; above 12.5 µM with SW-620 colon; above 12.5 µM in the assay on HOP-62 NSCLC. The TGI with SF-539 CNS was above 12.5 µM; with SNB-75 CNS, above 12.5 µM; in the assay with A549 NSCLC it was above 12.5 µM; with SK-MEL-28 melanoma it was above 12.5 µM; in the assay with T-47D breast, 9.21 µM.

Regarding `O=C(CSc1nc2ccc([N+](=O)[O-])cc2s1)c1ccc2ccccc2c1`, the TGI in the assay with HT29 colon, with OVCAR-4 ovarian, in the assay with MOLT-4 leukemia, with IGROV1 ovarian, with SW-620 colon and in the assay on HOP-62 NSCLC was above 100 µM throughout. Moreover, the TGI with SF-539 CNS, with SNB-75 CNS, with A549 NSCLC, with SK-MEL-28 melanoma and in the assay with T-47D breast was above 100 µM throughout.

Consider `Cn1cnc([N+](=O)[O-])c1Sc1nc(N)nc2c1ncn2C1OC(CO)C(O)C1O` (stereo not drawn), for which the TGI with HT29 colon was 33.6 µM; in the assay on OVCAR-4 ovarian it was above 100 µM; in the assay with MOLT-4 leukemia, above 100 µM; with IGROV1 ovarian, above 82.1 µM; in the assay on SW-620 colon, above 100 µM; with HOP-62 NSCLC it was above 100 µM. Moreover, the TGI was 85.6 µM in the assay on SF-539 CNS; above 84.9 µM in the assay with SNB-75 CNS; above 91 µM in the assay with A549 NSCLC; above 100 µM with SK-MEL-28 melanoma; above 100 µM in the assay on T-47D breast.

For `Cc1ccccc1N=Nc1c(O)c(S(=O)(=O)O)cc2cc(S(=O)(=O)O)ccc12`, the TGI with HT29 colon, with OVCAR-4 ovarian, with MOLT-4 leukemia, in the assay on IGROV1 ovarian, with SW-620 colon and in the assay on HOP-62 NSCLC was above 100 µM each time. The TGI with SF-539 CNS, in the assay with SNB-75 CNS, in the assay with A549 NSCLC, with SK-MEL-28 melanoma and in the assay with T-47D breast was above 100 µM each time.

`COc1cc2oc(=O)ccc2cc1C(=O)CC(C)C`: the TGI in the assay on HT29 colon, with OVCAR-4 ovarian, in the assay on MOLT-4 leukemia, with IGROV1 ovarian, in the assay on SW-620 colon and in the assay on HOP-62 NSCLC was above 100 µM throughout. The TGI in the assay on SF-539 CNS, with SNB-75 CNS, in the assay with A549 NSCLC, in the assay with SK-MEL-28 melanoma and with T-47D breast was above 100 µM throughout.

Turning to `O=C(O)c1ccc(C(=O)c2ccccc2C(=O)O)cc1C(=O)O`, the TGI in the assay on HT29 colon, with OVCAR-4 ovarian, in the assay with MOLT-4 leukemia, in the assay with IGROV1 ovarian, with SW-620 colon and in the assay with HOP-62 NSCLC was above 100 µM throughout. The TGI in the assay with SF-539 CNS, in the assay with SNB-75 CNS, in the assay on A549 NSCLC, in the assay on SK-MEL-28 melanoma and with T-47D breast was above 100 µM each time.

For `Nc1c(C(=O)O)nnc2cc(Cl)c(Cl)cc12`, the TGI in the assay on HT29 colon, with OVCAR-4 ovarian, in the assay with MOLT-4 leukemia, in the assay with IGROV1 ovarian, with SW-620 colon and in the assay on HOP-62 NSCLC was above 100 µM in each case. Moreover, the TGI with SF-539 CNS, with SNB-75 CNS, in the assay with A549 NSCLC and in the assay with T-47D breast was above 100 µM in each case.
